For one assay, the system named is 2-epimerase. It counts as binding, B. anthracis.
For the next assay, the target named is PAK4 (Homo sapiens, UniProt O96013, L310A). The assay is classed as binding.
Sequence of PAK4 (O96013 300-591 L310A limits assumed): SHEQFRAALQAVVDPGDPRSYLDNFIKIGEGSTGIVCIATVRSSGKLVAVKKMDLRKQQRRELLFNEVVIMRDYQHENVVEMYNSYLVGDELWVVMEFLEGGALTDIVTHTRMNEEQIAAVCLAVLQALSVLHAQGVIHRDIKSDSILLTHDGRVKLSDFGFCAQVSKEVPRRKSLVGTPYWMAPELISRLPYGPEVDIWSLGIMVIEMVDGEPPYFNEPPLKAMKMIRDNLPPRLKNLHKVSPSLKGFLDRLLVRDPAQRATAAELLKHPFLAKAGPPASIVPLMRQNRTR

Take `O=S(=O)(CCCn1cc(CCNS(=O)(=O)c2ccc(Br)cc2Cl)nn1)Nc1ccc(Nc2ccc(C(F)(F)F)nn2)cc1` [compound 4]: the “competition with UDP-GlcNAc by LO-NMR” value with 2-epimerase was “competitive with UDP-GlcNAc”.
Take `CNC(=O)c1cnn2ccc(C#N)cc12` [compound 5]: the “binding by competitive LO-NMR” value on PAK4 is recorded as “consistent with binding to the ATP-binding site”.

The values are drawn from paper PMC9667776 (RSC Medicinal Chemistry, 2022).
